Assay results taken from US20230150978A1, “QUINAZOLINONE DERIVATIVES AND USES THEREOF FOR TREATING A CANCER” (ENYO PHARMA, priority 2020, published 2023).

Assays:
Calreticulin = Calreticulin release (ER to plasma membrane translocation) screen, Nano-Glo HiBiT extracellular detection; type: cell-based; details: Homo sapiens, MDA-MB-231, MDA-MB-231 cells stably expressing Calreticulin-HiBiT; extracellular luminescence; read-out: CalR EC50
HMGB1 = HMGB1 release screen, Nano-Glo HiBiT extracellular detection; type: cell-based; details: Homo sapiens, MDA-MB-231, MDA-MB-231 cells stably expressing HMGB1-HiBiT; extracellular luminescence

COc1ccc2nc(CN3CCc4ccccc4C3)[nH]c(=O)c2c1 [Ex. #122, 2-(3,4-dihydro-1H-isoquinolin-2-ylmethyl)-6-methoxy-3H-quinazolin-4-one]
EC50 (Calreticulin): 1.66 µM
melting point: 174 to 179 °C
EC50 (HMGB1): 12.7 µM

COc1ccc2nc(CN3CCc4ccc(F)cc43)[nH]c(=O)c2c1 [Ex. #7, 2-[(6-fluoroindolin-1-yl)methyl]-6-methoxy-3H-quinazolin-4-one]
EC50 (Calreticulin): 0.323 µM
melting point: 229 to 235 °C
EC50 (HMGB1): 0.425 µM

COc1ccc2nc(CN3CCc4c(cccc4C(F)(F)F)C3)[nH]c(=O)c2c1 [Ex. #125, 6-methoxy-2-[[5-(trifluoromethyl)-3,4-dihydro-1H-isoquinolin-2-yl]methyl]-3H-quinazolin-4-one]
EC50 (Calreticulin): 9.76 µM
melting point: 196 to 206 °C
EC50 (HMGB1): 15.9 µM

CC(C)(C)OC(=O)NCCCCOc1ccc2nc(CN3CCc4ccccc43)[nH]c(=O)c2c1 [Ex. #90, tert-butyl N-[4-[[2-(indolin-1-ylmethyl)-4-oxo-3H-quinazolin-6-yl]oxy]butyl]carbamate]
EC50 (Calreticulin): 5.49 µM
melting point: 167 to 181 °C
EC50 (HMGB1): 8.76 µM

CC1(C)CN(Cc2nc3cc4c(cc3c(=O)[nH]2)OCO4)c2ccccc21 [Ex. #119, 6-[(3,3-dimethylindolin-1-yl)methyl]-7H-[1,3]dioxolo[4,5-g]quinazolin-8-one]
EC50 (Calreticulin): 6.16 µM
melting point: 199 to 221 °C
EC50 (HMGB1): 7.56 µM

COc1ccc2nc(CN3CCCc4cccc(F)c43)[nH]c(=O)c2c1 [Ex. #11, 2-[(8-fluoro-3,4-dihydro-2H-quinolin-1-yl)methyl]-6-methoxy-3H-quinazolin-4-one]
EC50 (Calreticulin): 0.102 µM
melting point: 222 to 236 °C
EC50 (HMGB1): 0.109 µM

CC1CN(Cc2nc3ccc(Cl)cc3c(=O)[nH]2)c2ccccc21 (stereo not drawn) [Ex. #37, 6-chloro-2-[(3-methylindolin-1-yl)methyl]-3H-quinazolin-4-one]
EC50 (Calreticulin): 1.16 µM
melting point: 200 to 223 °C
EC50 (HMGB1): 3.16 µM

COc1cccc2c1CN(Cc1nc3ccc(Cl)cc3c(=O)[nH]1)CC2 [Ex. #130, 6-chloro-2-[(8-methoxy-3,4-dihydro-1H-isoquinolin-2-yl)methyl]-3H-quinazolin-4-one]
EC50 (Calreticulin): 9.06 µM
melting point: 195 to 203 °C
EC50 (HMGB1): 15.1 µM

COc1cccc2c1N(Cc1nc3ccc(Cl)cc3c(=O)[nH]1)CCC2 [Ex. #54, 6-chloro-2-[(8-methoxy-3,4-dihydro-2H-quinolin-1-yl)methyl]-3H-quinazolin-4-one]
EC50 (Calreticulin): 1.76 µM
melting point: 183 to 194 °C
EC50 (HMGB1): 3.06 µM

COc1ccc2nc(CN3CCCc4cccc(OC)c43)[nH]c(=O)c2c1 [Ex. #13, 6-methoxy-2-[(8-methoxy-3,4-dihydro-2H-quinolin-1-yl)methyl]-3H-quinazolin-4-one]
EC50 (Calreticulin): 1.14 µM
melting point: 169 to 183 °C
EC50 (HMGB1): 0.752 µM
